Data published in patent US4774248A, “Methods of treating depression and depressive states using 5-phenyl-1,4,5,6-tetrahydropyrimidine derivatives” (priority 1985, dated 1988).
“Also recorded” adds a separate entry of the source.

What was measured:
male mice = experiment: Acute toxicity, intraperitoneal (LD0, LD30, LD60, LD100); assay type: in vivo
Description: (§1) The results of toxicological and neuropsychopharmacological tests which were carried out with the products according to the invention have been summarized below. In these tests, solutions of the said products in distilled water were administered intraperitoneally in a volume of 20 ml/kg to male mice and in a volume of 5 ml/kg to male rats.

[1] = tested on: trembling and head twitches induced by 5-hydroxytryptophan (5-HTP); experiment: Interaction with 5-hydroxytryptophan in association with an MAOI (nialamide); assay type: in vivo, male mice
Description: The purpose of the procedure used is to investigate the activity of each product according to the invention as regards the trembling induced by 5-hydroxytryptophan (5-HTP) in association with an MAOI (in this case nialamide).
Each test product, in solution in distilled water, is administered intraperitoneally in a volume of 20 ml/kg to male mice.
Groups of 10 mice receive nialamide (20 mg/kg, administered gastrically) at time T-18 h, each test product at time T-0.5 h and then (±)-5-HTP (20 mg/kg, administered intraperitoneally) at time T. Immediately after the injection of the (±)-5-HTP, the mice are individually placed in transparent plastic boxes. The generalized trembling, the partial trembling and the head twitches are noted on a yes/no basis for 2 h.

anesthetized dogs [2] = experiment: Cardiovascular study in anesthetized dogs; assay type: in vivo; details: intraduodenal
[3] = tested on: depressions and depressive states; experiment: Clinical trials in depression and depressive states; assay type: in vivo, human; details: daily oral administration to adults
Description: The clinical trials which have been undertaken have made it possible to determine that the daily dose to be administered orally to adults, in the treatment of depressions and depressive states, is generally between 3 and 120 mg for the products of the formulae Ia and Ib according to the invention.

[4] = tested on: hypothermia and ptosis induced by reserpine; experiment: Interaction with reserpine; assay type: in vivo; details: mice, i.p.; reserpine 2.5 mg/kg
Description: as §1
Four hours after the intraperitoneal injection of 2.5 mg/kg of reserpine, groups of 12 mice receive CRL 41 378.

[5] = tested on: stereotypies induced by amphetamine; experiment: Interaction with amphetamine (rats); assay type: in vivo; details: i.p.; amphetamine 2 mg/kg
Description: as §1
Amphetamine (2 mg/kg) is injected intraperitoneally into groups of 6 rats 30 minutes after the administration of CRL 41 378.

mice [6] = experiment: Behavioral despair (forced immersion); assay type: in vivo; details: mice which have been forcibly immersed, i.p.
Description: as §1
Half an hour after they have received CRL 41 378, groups of 6 mice are placed in a beaker filled with water to a height of 6 cm. The total period of immobility between the 2nd and 6th minutes following immersion is noted.

pregnant rabbits = experiment: Teratogenic effects on pregnant rabbits; assay type: in vivo
[7] = tested on: hypothermia induced by apomorphine; experiment: Interaction with apomorphine by gastric administration; assay type: in vivo; details: Mus musculus, male mice, apomorphine 16 mg/kg s.c., read-out: dose as from which the hypothermia induced by apomorphine is opposed
Description: Each test product is administered gastrically to male mice, in a volume of 20 ml/kg, 0.50 h before the subcutaneous injection of 16 mg/kg of apomorphine.

[8] = tested on: hypothermia, righting behavior and stereotypies induced by apomorphine; experiment: Interaction with apomorphine in mice; assay type: in vivo; details: i.p.
Description: as §1
CRL 41 378 is administered to groups of 6 mice 30 minutes before the subcutaneous injection of 1 or 16 mg/kg of apomorphine.

mice [9] = experiment: Electric shock; assay type: in vivo; details: i.p.
Description: as §1
The test is performed on groups of 10 mice 30 minutes after the administration of CRL 41 378.

anesthetized dogs [10] = experiment: Cardiovascular study in anesthetized dogs; assay type: in vivo
Description: Groups of 2 adult dogs (each weighing 10 to 18 kg), anesthetized with nembutal, receive each test product (i) by intraduodenal administration at successive doses of 0.1 mg/kg, 0.5 mg/kg, 1 mg/kg, 2.5 mg/kg, 5 mg/kb, 10 mg/kg and 20 mg/kg, and then (ii) if appropriate, by intravenous administration at a dose of 10 mg/kg. The effects of 10 μg/kg of isoprenaline and/or 2 μg/kg of norepinephrine after the intraduodenal administration of a cumulative dose of 39.1 mg/kg are also assessed.
The following are measured: the total arterial blood pressure, the diastolic arterial blood pressure, the heart rate, the blood flows through the femoral and cerebral arteries and saphenous veins, the rectal temperature, the skin temperature and the pressure of the gases (essentially O2) dissolved in the arterial blood.

mice [11] = experiment: Motility reduced by hypoxic aggression (acute hypobaric anoxia); assay type: in vivo; details: i.p.
Description: In these tests, solutions of the said products in distilled water were administered intraperitoneally in a volume of 20 ml/kg to male mice and in a volume of 5 ml/kg to male rats.

[12] = tested on: hypothermia, trembling and peripheral cholinergic symptoms induced by oxotremorine; experiment: Interaction with oxotremorine; assay type: in vivo; details: mice, i.p.; oxotremorine 0.5 mg/kg
Description: as §1
CRL 41 378 is administered to groups of 6 mice 0.5 h before the intraperitoneal injection of 0.5 mg/kg of oxotremorine.

[13] = tested on: central nervous system (CNS); experiment: Neuropsychopharmacological profile (conclusions of the tests); assay type: in vivo, mice and rats
Description: as §1

mice [14] = experiment: Intergroup aggressiveness; assay type: in vivo; details: mice, i.p.
Description: as §1
After they have stayed for 3 weeks in the two halves of a cage divided by an opaque partition, groups of 3 mice receive CRL 41 378. Half an hour later, the two groups from the same cage are brought together by removal of the partition and the number of fights which occur in 10 minutes is noted.

mice [15] = experiment: Asphyxiant anoxia caused by gallamine triiodoethylate; assay type: in vivo; details: i.p., gallamine triiodoethylate 32 mg/kg
Description: as §1
Groups of 10 mice receive CRL 41 378 30 minutes before the intraperitoneal administration of 32 mg/kg of gallamine triiodoethylate (reference curarizing agent).

mice [16] = experiment: Overall behavior and reactivities in mice; assay type: in vivo; details: i.p.
Description: as §1
(§2) Groups of 3 animals are observed before and then 0.25 h, 0.50 h, 1 h, 2 h, 3 h and 24 h after the administration of CRL 41 378. The following observations are made:
(§3) Groups of 3 animals are observed before and then 0.25 h, 0.50 h, 1 h, 2 h, 3 h and 24 h after the administration of CRL 41 329.

rats = experiment: Overall behavior and reactivities in rats; assay type: in vivo; details: i.p.
Description: as §1, §2, §3

chicken embryos = details: D. G. UPSHALL, Teratology, 1972; cited from earlier work
[17] = i.p., nialamide + (±)-5-HTP, male mice

Cl.Fc1ccccc1C1CN=CNC1 (centres unmarked) [CRL 41 329, 5-(2-fluorophenyl)-1,4,5,6-tetrahydropyrimidine hydrochloride]
toxic signs in the animals treated (male mice; 64 mg/kg i.p.): all the animals treated exhibit salivation, sedation and vasodilation of the tail
toxic signs in the animals treated (male mice; 128 mg/kg i.p.): all the animals have asphyxiant convulsions
LD0 (maximum non-lethal dose) (male mice; intraperitoneal): greater than 64 mg/kg
LD100 (minimum dose lethal to all the animals) (male mice; intraperitoneal): ~128 mg/kg
analogy with β-adrenergic stimulants in the 5-HTP procedure ([1]; 5-HTP + MAOI): effects analogous to those of isoprenaline
intensity of potentiation of 5-HTP effects ([1]; higher doses, 5-HTP + MAOI, male mice): the potentiation being very intense at the doses of 8 to 32 mg/kg
head twitches [1, 17]: distinctly potentiate the partial trembling and the head twitches
partial trembling [1, 17]: distinctly potentiate the partial trembling and the head twitches
blood flows through the femoral and vertebral arteries (anesthetized dogs [2]): decreases the blood flows in the femoral and vertebral arteries
results in human therapy (depression) [3]: excellent results
action on hypothermia induced by reserpine [4]: significant antagonism of the hypothermia induced by apomorphine, oxotremorine and reserpine
action on stereotypies induced by amphetamine [5]: potentiates the stereotypies induced by amphetamine
period of immobility (mice [6]): no decrease in the period of immobility due to "despair"
teratogenic effects (pregnant rabbits): devoid of harmful teratogenic effects on pregnant rabbits
minimal effective dose [7]: ≥ 0.25 mg/kg
action on hypothermia induced by apomorphine [8]: significant antagonism of the hypothermia induced by apomorphine, oxotremorine and reserpine
lethal effects of electric shock (mice [9]): aggravation of the lethal effects of electric shock and gallamine triiodoethylate in mice
rectal temperature (anesthetized dogs [10]): increases the rectal temperature
skin temperature (anesthetized dogs [10]): increases the rectal temperature and skin temperature
arterial blood pressure (anesthetized dogs [10]; intraduodenal): tends to increase the arterial blood pressure
heart rate (anesthetized dogs [10]; intraduodenal): decrease the heart rate
mydriasis and salivation (anesthetized dogs [10]; intraduodenal): causes mydriasis and substantial salivation
respiratory arrhythmia (anesthetized dogs [10]; intraduodenal): causing respiratory arrhythmia
effects of isoprenaline (anesthetized dogs [10]; isoprenaline 10 μg/kg): does not cause a distinct modification of the effects of isoprenaline on the diastolic arterial blood pressure and the heart rate
hypertension induced by norepinephrine (anesthetized dogs [10]; norepinephrine 2 μg/kg): decreases the hypertension induced by norepinephrine
motor recovery after acute hypobaric hypoxia (mice [11]): a decrease in the motor recovery after hypoxic aggression
action on hypothermia induced by oxotremorine [12]: significant antagonism of the hypothermia induced by apomorphine, oxotremorine and reserpine
antidepressant effects ([13]; i.p.): antidepressant effects appearing at all the doses used
peripheral α-adrenergic stimulant effects ([13]; i.p.): modest effects capable of reflecting peripheral α-adrenergic stimulation
sedative effects ([13]; i.p., hydrochloride): sedative effects appearing at high doses; also recorded: sedation with hypomotility; also recorded: low-intensity transient hypothermia
intergroup aggressiveness (number of fights) (mice [14]): a decrease in the intergroup aggressiveness in mice
time taken for convulsions and death / lethal effects of gallamine triiodoethylate (mice [15]): aggravation of the lethal effects of electric shock and gallamine triiodoethylate in mice
overall behavior and reactivities (mice [16]; 0.5 mg/kg): moderate mydriasis for 2 h
overall behavior and reactivities (mice [16]; 2 mg/kg, hydrochloride): sedation (2 out of 3 animals) for 0.5 h; also recorded: moderate and brief mydriasis for 0.5 h
overall behavior and reactivities (mice [16]; 8 mg/kg, hydrochloride): sedation (2 out of 3 animals) for 0.5 h; also recorded: weak and brief mydriasis for 0.5 h
overall behavior and reactivities (mice [16]; 32 mg/kg): sedation (3/3) 0.25 h after administration, then (2/3) 0.5 h after administration
overall behavior and reactivities (rats; 0.25 mg/kg): moderate mydriasis for 3 h
overall behavior and reactivities (rats; 1 mg/kg): significant mydriasis for 3 h
overall behavior and reactivities (rats; 4 mg/kg, hydrochloride): sedation (3/3) for 2 h; also recorded: a decrease in the reactivity to touch and the muscle tone; also recorded: piloerection (1/3) for 1 h; also recorded: significant mydriasis for at least 3 h (mydriasis still being apparent 24 h after administration)
overall behavior and reactivities (rats; 16 mg/kg, hydrochloride): sedation (3/3) for 3 h; also recorded: a decrease in the reactivity to touch and the muscle tone; also recorded: significant mydriasis for 3 h (the mydriasis still being apparent 24 h after administration)

Clc1ccc(C2CCNC=N2)cc1 (centres unmarked) [compound No. 18]
teratogenic effect (chicken embryos): absence of teratogenic effects on chicken embryos

c1ccc(C2=NCCCN2)cc1 [compound No. 2]
teratogenic effect (chicken embryos): teratogenic

CC1(C)NCC(O)(c2ccccc2)CN1 [CRL 41 365, 2,2-dimethyl-5-hydroxy-5-phenyl-1,2,3,4,5,6-hexahydropyrimidine]
LD0 (maximum non-lethal dose) (male mice; intraperitoneal): greater than 512 mg/kg
action on stereotypies induced by amphetamine [5]: at all the doses studied, this product potentiates the stereotypies induced by amphetamine
period of immobility (mice [6]): a very moderate decrease in the period of immobility of mice which have been forcibly immersed
sedative effects ([13]; i.p.): sedation with a decrease in the reactivities in rats and mice, hypothermia in mice
overall neuropsychopharmacological profile ([13]; summary): essentially a sedative
overall behavior and reactivities (mice [16]; 256 mg/kg): sedation, for 1 h; also recorded: a decrease in the heart rate for 1 h; also recorded: a decrease in the reactivity to touch for 0.5 h; also recorded: hypothermia for 3 h
hypothermia, maximum intensity (mice [16]; 256 mg/kg, 0.5 h after administration): -1.6 °C
overall behavior and reactivities (mice [16]; 16 and 64 mg/kg): no distinct modification of the behavior and reactivities compared with the control animals
overall behavior and reactivities (rats; 8 mg/kg): no distinct modification of the behavior and reactivities compared with the control animals
overall behavior and reactivities (rats; 32 mg/kg): sedation and a decrease in the breathing rate for 1 h; also recorded: a decrease in the reactivity to touch for 0.5 h
overall behavior and reactivities (rats; 128 mg/kg): sedation and a decrease in the breathing rate for 3 h; also recorded: a decrease in the reactivity to touch for 1 h
